{
  "source": "ChEMBL document CHEMBL4382204",
  "about": "(Eur J Med Chem, 2018)",
  "key": {"[1]": {"biological_target": "Bcr/Abl fusion protein (Homo sapiens) (UniProt P00519+P11274)", "sequence (P00519 whole entry, looked up, the tested form may be a part)": "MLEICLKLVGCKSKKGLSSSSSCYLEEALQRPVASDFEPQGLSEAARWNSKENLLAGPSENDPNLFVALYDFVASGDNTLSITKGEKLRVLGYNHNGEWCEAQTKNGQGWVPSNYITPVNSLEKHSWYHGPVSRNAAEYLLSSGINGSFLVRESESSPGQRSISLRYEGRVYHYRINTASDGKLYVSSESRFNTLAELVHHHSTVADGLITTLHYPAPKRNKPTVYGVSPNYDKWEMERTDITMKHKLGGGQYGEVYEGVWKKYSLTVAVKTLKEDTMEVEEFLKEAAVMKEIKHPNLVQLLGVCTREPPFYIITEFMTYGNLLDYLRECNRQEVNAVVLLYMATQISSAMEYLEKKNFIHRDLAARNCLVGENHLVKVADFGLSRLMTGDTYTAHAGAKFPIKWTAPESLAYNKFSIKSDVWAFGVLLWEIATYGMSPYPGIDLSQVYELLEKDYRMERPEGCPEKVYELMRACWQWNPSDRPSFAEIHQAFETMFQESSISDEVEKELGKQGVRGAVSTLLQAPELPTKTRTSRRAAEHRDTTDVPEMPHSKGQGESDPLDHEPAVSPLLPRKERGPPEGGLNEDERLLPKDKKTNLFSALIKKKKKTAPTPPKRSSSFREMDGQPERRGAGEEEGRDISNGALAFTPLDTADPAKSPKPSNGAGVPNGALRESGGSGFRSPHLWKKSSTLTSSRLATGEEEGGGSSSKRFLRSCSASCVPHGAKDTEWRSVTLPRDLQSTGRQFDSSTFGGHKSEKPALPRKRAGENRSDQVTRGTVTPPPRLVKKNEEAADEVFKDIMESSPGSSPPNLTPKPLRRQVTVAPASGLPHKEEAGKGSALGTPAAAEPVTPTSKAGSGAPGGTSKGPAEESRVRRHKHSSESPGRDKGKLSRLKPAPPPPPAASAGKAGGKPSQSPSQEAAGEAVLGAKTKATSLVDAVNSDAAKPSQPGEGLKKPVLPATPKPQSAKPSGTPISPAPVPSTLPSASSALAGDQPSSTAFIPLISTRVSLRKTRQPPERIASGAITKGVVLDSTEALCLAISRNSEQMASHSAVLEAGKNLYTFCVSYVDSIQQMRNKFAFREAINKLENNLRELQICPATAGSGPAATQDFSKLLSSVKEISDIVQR", "sequence (P11274 whole entry, looked up, the tested form may be a part)": "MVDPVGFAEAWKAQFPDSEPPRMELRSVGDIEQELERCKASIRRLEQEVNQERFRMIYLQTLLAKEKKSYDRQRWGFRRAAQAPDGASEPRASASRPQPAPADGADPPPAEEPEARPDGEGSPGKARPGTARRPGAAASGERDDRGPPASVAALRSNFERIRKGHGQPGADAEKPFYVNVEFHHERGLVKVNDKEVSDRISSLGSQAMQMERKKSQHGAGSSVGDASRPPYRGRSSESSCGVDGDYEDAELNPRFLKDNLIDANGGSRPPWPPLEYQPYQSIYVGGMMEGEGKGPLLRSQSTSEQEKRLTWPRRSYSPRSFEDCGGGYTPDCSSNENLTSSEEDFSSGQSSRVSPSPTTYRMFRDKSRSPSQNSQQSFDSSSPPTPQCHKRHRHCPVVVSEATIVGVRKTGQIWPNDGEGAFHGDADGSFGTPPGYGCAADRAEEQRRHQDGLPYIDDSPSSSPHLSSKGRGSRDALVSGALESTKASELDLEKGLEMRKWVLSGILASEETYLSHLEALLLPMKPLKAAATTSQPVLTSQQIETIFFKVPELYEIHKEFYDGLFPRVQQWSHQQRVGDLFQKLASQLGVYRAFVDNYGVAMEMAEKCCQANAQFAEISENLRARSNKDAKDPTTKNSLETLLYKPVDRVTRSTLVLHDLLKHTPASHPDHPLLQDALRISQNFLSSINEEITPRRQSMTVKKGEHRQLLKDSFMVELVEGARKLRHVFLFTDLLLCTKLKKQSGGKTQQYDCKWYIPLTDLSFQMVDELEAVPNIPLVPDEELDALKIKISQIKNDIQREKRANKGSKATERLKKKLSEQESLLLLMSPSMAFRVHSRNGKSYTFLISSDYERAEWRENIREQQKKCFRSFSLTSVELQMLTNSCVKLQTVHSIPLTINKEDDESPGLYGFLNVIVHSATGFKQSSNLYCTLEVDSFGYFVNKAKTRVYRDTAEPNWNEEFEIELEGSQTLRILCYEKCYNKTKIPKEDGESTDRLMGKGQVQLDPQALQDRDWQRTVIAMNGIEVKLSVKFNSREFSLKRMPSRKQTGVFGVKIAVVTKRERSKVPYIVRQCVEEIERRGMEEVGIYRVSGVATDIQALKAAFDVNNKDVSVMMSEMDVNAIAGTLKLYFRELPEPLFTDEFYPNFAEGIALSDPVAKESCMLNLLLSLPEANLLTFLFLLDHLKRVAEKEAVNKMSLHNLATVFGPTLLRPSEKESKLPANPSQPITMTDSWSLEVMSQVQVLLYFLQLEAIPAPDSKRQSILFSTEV", "experiment": "Inhibition of BCR/ABL in human K562 cells assessed as inhibition of CrkL phosphorylation up to 0.3 uM after 1 hr by immunoblotting analysis", "assay_type": "cell-based"}, "[2]": {"experiment": "Apparent clearance during terminal phase in mouse at 10 mg/kg, po by LC-MS/MS analysis", "assay_type": "ADME, organism-based", "details": "in vivo, read-out: CLz/F (converted)"}, "BaF3": {"tested_on": "BaF3", "experiment": "Antitumor activity against mouse BAF3 cells expressing BCR/ABL T315I mutant allografted in nu/nu mouse assessed as tumor growth inhibition at 25 to 50 mg/kg, po administered via gavage for 14 days by Ki-67 staining based assay", "assay_type": "functional, organism-based"}},
  "note": "Activity calls are given as the source filed them. No cut-off for these calls is given here.",
  "data": [
    {"smiles": "CN1CCN(Cc2ccc(NC(=O)CCSc3ccc4c(/C=C/c5ccccn5)n[nH]c4c3)cc2C(F)(F)F)CC1", "values": [
      {"measurement": "inhibition", "setting": "[1]", "value": "Active"},
      {"measurement": "CL/F", "setting": "[2]", "value": 723, "unit": "mL/min/kg"},
      {"measurement": "TGI", "setting": "BaF3", "value": "Active"}
    ]}
  ]
}
